Literature values as cited in patent publication US8729108B2, “Waterborne topical compositions for the delivery of active ingredients such as azelaic acid” (priority 2008, dated 2014).

## O=C(O)CCCCCCCC(=O)O [Azelaic acid, nonanedioic acid]
Cosmetic oils
  solubility in cosmetic oils: little or no solubility
water
  maximum azelaic acid content of an aqueous solution: about 0.24 % by weight (w/w)
